Our source for the pest or weed control values is patent US20220132847A1, “CINNOLINIUM COMPOUNDS FOR USE IN A METHOD OF CONTROLLING UNWANTED PLANT GROWTH” (SYNGENTA CROP PROTECTION AG, priority 2019, published 2022).

Where a name gives a salt, the structure may show the parent alone.

Common to all, as to experiment: Post-emergence efficacy, glasshouse
Common to all, as to type: in vivo

Assay [1] deals with Amaranthus palmeri (AMAPA). The note with it: Amaranthus palmeri, post-emergence, 312 h; Application Rate 1000 g/Ha; evaluated after 13 days; 100=total damage to plant, 0=no damage to plant; read-out: Control of weed species after post-emergence application, AMAPA. As for the experimental part: (§1) Seeds of a variety of test species were sown in standard soil in pots. After cultivation for 14 days (post-emergence) under controlled conditions in a glasshouse (at 24/16° C., day/night; 14 hours light; 65% humidity), the plants were sprayed with an aqueous spray solution derived from the dissolution of the technical active ingredient formula (I) in a small amount of acetone and a special solvent and emulsifier mixture referred to as IF50 (11.12% Emulsogen EL360™+44.44% N-methylpyrrolidone+44.44% Dowanol DPM glycol ether), to create a 50 g/l solution which was then diluted to required concentration using 0.25% or 1% Empicol ESC70 (Sodium lauryl ether sulphate)+1% ammonium sulphate in water as diluent.
(§2) The test plants were then grown in a glasshouse under controlled conditions (at 24/16° C., day/night; 14 hours light; 65% humidity) and watered twice daily. After 13 days the test was evaluated (100=total damage to plant; 0=no damage to plant).
(§3) Ipomoea hederacea (IPOHE), Euphorbia heterophylla (EPHHL), Chenopodium album (CHEAL), Amaranthus palmeri (AMAPA), Lolium perenne (LOLPE), Digitaria sanguinalis (DIGSA), Eleusine indica (ELEIN), Echinochloa crus-galli (ECHCG), Setaria faberi (SETFA)

The test system of assay [2] is Chenopodium album (CHEAL). The note with it: Chenopodium album, post-emergence, 312 h; Application Rate 1000 g/Ha; evaluated after 13 days; 100=total damage to plant, 0=no damage to plant; read-out: Control of weed species after post-emergence application, CHEAL. The procedure: as §1, §2, §3
The test system of assay [3] is Digitaria sanguinalis (DIGSA). Conditions: Digitaria sanguinalis, post-emergence, 312 h; Application Rate 1000 g/Ha; evaluated after 13 days; 100=total damage to plant, 0=no damage to plant; read-out: Control of weed species after post-emergence application, DIGSA. As for the experimental part:
as §1, §2, §3

For assay [4], the system named is Echinochloa crus-galli (ECHCG). The note with it: Echinochloa crus-galli, post-emergence, 312 h; Application Rate 1000 g/Ha; evaluated after 13 days; 100=total damage to plant, 0=no damage to plant; read-out: Control of weed species after post-emergence application, ECHCG. The procedure: as §1, §2, §3
For another assay, the system named is Eleusine indica (ELEIN). The note with it: Eleusine indica, post-emergence, 312 h; Application Rate 1000 g/Ha; evaluated after 13 days; 100=total damage to plant, 0=no damage to plant; read-out: Control of weed species after post-emergence application, ELEIN. As for the experimental part: as §1, §2, §3
Assay [5] relates to Euphorbia heterophylla (EPHHL). The note with it: Euphorbia heterophylla, post-emergence, 312 h; Application Rate 1000 g/Ha; evaluated after 13 days; 100=total damage to plant, 0=no damage to plant; read-out: Control of weed species after post-emergence application, EPHHL. As for the experimental part:
as §1, §2, §3

The test system of assay [6] is Ipomoea hederacea (IPOHE). Conditions: Ipomoea hederacea, post-emergence, 312 h; Application Rate 1000 g/Ha; evaluated after 13 days; 100=total damage to plant, 0=no damage to plant; read-out: Control of weed species after post-emergence application, IPOHE. As for the experimental part: as §1, §2, §3
For a further assay, the system named is Lolium perenne (LOLPE). The note with it: Lolium perenne, post-emergence, 312 h; Application Rate 1000 g/Ha; evaluated after 13 days; 100=total damage to plant, 0=no damage to plant; read-out: Control of weed species after post-emergence application, LOLPE. The procedure:
as §1, §2, §3

A further assay has as its system Setaria faberi (SETFA). Conditions: Setaria faberi, post-emergence, 312 h; Application Rate 1000 g/Ha; evaluated after 13 days; 100=total damage to plant, 0=no damage to plant; read-out: Control of weed species after post-emergence application, SETFA. The procedure: as §1, §2, §3

Turning to `C[n+]1cc(C(=O)[O-])c2ccccc2n1` [Compound A1], the pest or weed control at 1000 g/ha in [1] was 100%; in assay [2] it was 100%; in [3], 90%; in assay [4], 20%; in the assay on Eleusine indica (ELEIN), 100%; in [5], 70%. Besides, the pest or weed control at 1000 g/ha in [6] amounted to 70%; in the assay with Lolium perenne (LOLPE), 50%; in the assay with Setaria faberi (SETFA), 30%.
With `COC(=O)c1c[n+](C)nc2ccccc12` [Compound A2], the pest or weed control at 1000 g/ha worked out at 100% in assay [1]; 70% in assay [2]; 60% in assay [3]; 30% in assay [4]; 70% with Eleusine indica (ELEIN); 70% in [5]. In addition, the pest or weed control at 1000 g/ha in assay [6] is 70%; in the assay on Lolium perenne (LOLPE), 30%; in the assay with Setaria faberi (SETFA) it was 60%.
Consider `C[n+]1cc(C(=O)O)c2ccccc2n1` [Compound A3, 2-methylcinnolin-2-ium-4-carboxylic acid methyl sulfate], for which the pest or weed control at 1000 g/ha was 20% in assay [1]; 20% in [2]; 50% in [3]; 30% in [4]; 60% with Eleusine indica (ELEIN); 30% in assay [5]. Besides, the pest or weed control at 1000 g/ha turned out to be 20% in [6], 20% in the assay with Lolium perenne (LOLPE) and 10% in the assay with Setaria faberi (SETFA).
With `CONC(=O)c1c[n+](C)nc2ccccc12` [Compound A4, N-methoxy-2-methyl-cinnolin-2-ium-4-carboxamide 2,2,2-trifluoroacetate], the pest or weed control at 1000 g/ha was 10% in assay [1]; 40% in [2]; 0% in assay [3]; 10% in assay [4]; 20% in the assay with Eleusine indica (ELEIN); 50% in assay [5]. Besides, the pest or weed control at 1000 g/ha in [6] was 20%; with Lolium perenne (LOLPE), 0%; in the assay on Setaria faberi (SETFA) it was 10%.
Take `C[n+]1cc(C(=O)[N-]S(C)(=O)=O)c2ccccc2n1` [Compound A5, (2-methylcinnolin-2-ium-4-carbonyl)-methylsulfonyl-azanide]: the pest or weed control at 1000 g/ha in [1] came to 100%; in assay [2], 90%; in assay [3], 90%; in assay [4] it was 50%; in the assay with Eleusine indica (ELEIN), 90%; in assay [5] it was 90%. Moreover, the pest or weed control at 1000 g/ha was 90% in assay [6], 50% with Lolium perenne (LOLPE) and 70% with Setaria faberi (SETFA).
For the molecule `C[n+]1cc(S(=O)(=O)[O-])c2ccccc2n1` [Compound A6, 2-methylcinnolin-2-ium-4-sulfonate], the pest or weed control at 1000 g/ha in [1] came out at 10%; in [2], 60%; in assay [3], 10%; in [4], 10%; with Eleusine indica (ELEIN), 10%; in [5], 60%. Besides, the pest or weed control at 1000 g/ha is 0% in assay [6], 10% in the assay with Lolium perenne (LOLPE) and 10% in the assay on Setaria faberi (SETFA).
As for `C[n+]1cc(P(C)(=O)O)c2ccccc2n1` [Compound A7], the pest or weed control at 1000 g/ha in assay [2] came to 100%; in assay [4], 70%; in the assay on Eleusine indica (ELEIN) it was 80%; in assay [5], 90%; in assay [6], 70%; with Lolium perenne (LOLPE), 40%. In the assay with Setaria faberi (SETFA), the pest or weed control at 1000 g/ha was 70%.
On to `C[C@@H](NC(=O)c1c[n+](C)nc2ccccc12)C(=O)OC(C)(C)C` [Compound A8, tert-butyl (2R)-2-[(2-methylcinnolin-2-ium-4-carbonyl)amino]propanoate iodide], for which the pest or weed control at 1000 g/ha in assay [1] was found to be 20%; in assay [2], 30%; in assay [3], 20%; in assay [4] it was 20%; with Eleusine indica (ELEIN) it was 10%; in assay [5], 30%. Further, the pest or weed control at 1000 g/ha in assay [6] came to 10%; with Lolium perenne (LOLPE) it was 20%; in the assay with Setaria faberi (SETFA) it was 10%.
Consider `C[C@@H](NC(=O)c1c[n+](C)nc2ccccc12)C(=O)O` [Compound A9, (2R)-2-[(2-methylcinnolin-2-ium-4-carbonyl)amino]propanoic acid 2,2,2-trifluoroacetate], for which the pest or weed control at 1000 g/ha in [1] is 50%; in assay [2], 50%; in assay [3], 40%; in assay [4], 20%; in the assay with Eleusine indica (ELEIN), 40%; in [5] it was 50%. Also, the pest or weed control at 1000 g/ha amounted to 50% in assay [6], 10% in the assay on Lolium perenne (LOLPE) and 30% in the assay with Setaria faberi (SETFA).
Regarding `CNS(=O)(=O)[N-]C(=O)c1c[n+](C)nc2ccccc12` [Compound A10, 2-methyl-N-(methylsulfamoyl)cinnolin-2-ium-4-carboxamide], the pest or weed control at 1000 g/ha in [1] turned out to be 80%; in assay [2], 70%; in [3] it was 70%; in assay [4] it was 50%; with Eleusine indica (ELEIN), 60%; in assay [5], 70%. Also, the pest or weed control at 1000 g/ha stood at 30% in [6], 30% in the assay with Lolium perenne (LOLPE) and 50% with Setaria faberi (SETFA).
`CN(C)S(=O)(=O)[N-]C(=O)c1c[n+](C)nc2ccccc12` [Compound A11]: the pest or weed control at 1000 g/ha is 40% in assay [1]; 60% in [2]; 40% in [3]; 50% in assay [4]; 30% in the assay with Eleusine indica (ELEIN); 70% in assay [5]. Moreover, the results for the pest or weed control at 1000 g/ha (in [6]; in the assay with Lolium perenne (LOLPE); in the assay on Setaria faberi (SETFA)) were 60%, 20% and 50%, respectively.
As for `C[n+]1cc(C(=O)[N-]S(=O)(=O)C2CC2)c2ccccc2n1` [Compound A12], the pest or weed control at 1000 g/ha in assay [1] came to 60%; in [2] it was 60%; in assay [3] it was 20%; in assay [4], 30%; in the assay on Eleusine indica (ELEIN), 30%; in assay [5] it was 70%. Also, the figures for the pest or weed control at 1000 g/ha (in [6]; in the assay with Lolium perenne (LOLPE); in the assay with Setaria faberi (SETFA)) were 70%, 40% and 60%, respectively.
With `CS(=O)(=O)[N-]C(=O)c1c[n+](CC(=O)NS(C)(=O)=O)nc2ccccc12` [Compound A13], the pest or weed control at 1000 g/ha in [1] was 0%; in assay [2], 0%; in assay [3], 10%; in assay [4], 10%; with Eleusine indica (ELEIN), 10%; in [5] it was 10%. Also, the pest or weed control at 1000 g/ha (in [6]; with Lolium perenne (LOLPE); in the assay with Setaria faberi (SETFA)) was 10% throughout.
